These results are taken from patent US20120270237A9, “METHODS FOR THE IDENTIFICATION OF KINASE INTERACTING MOLECULES AND FOR THE PURIFICATION OF KINASE PROTEINS” (Cellzone AG, priority 2009, published 2012).

Common to all, as to assay: Kinobeads competition binding, HeLa Placenta lysate mix
What all share (conditions): 10 μM free compound

In one test the target is Erk2 (Homo sapiens, UniProt P28482). Details: capturing and identification of kinases from mixed HeLa placenta lysates; endogenous in cells; host or cells: mixed lysate of HeLa cells and placenta tissue. How it is done:
(§1) To one aliquot of cell lysate 10 μM of the free compound (FIG. 3, CZC31326) was added and allowed to bind to proteins in the lysate. Then the affinity matrix with the immobilized compound was added to capture proteins that were not interacting with the previously added free compound. Beads were separated from the lysate and bead bound proteins were eluted in SDS sample buffer and subsequently separated by SDS-Polyacrylamide gel electrophoresis (FIG. 10). Suitable gel bands were cut out and subjected to in-gel proteolytic digestion with trypsin. The second lysate aliquot was processed identically, however no free compound was added (DMSO solvent control). Peptides originating from samples 1 and 2 were labeled with iTRAQ reagents (iTRAQ 114 and iTRAQ 117) and the combined samples were analyzed with a nano-flow liquid chromatography system coupled online to a tandem mass spectrometer (LC-MS/MS) experiment followed by iTRAQ reporter ion quantification in the MS/MS spectra as described in Example 2.

For another test, the target named is T1, GCK (Homo sapiens, UniProt Q12851).
T1 sequence (Q12851 1-820): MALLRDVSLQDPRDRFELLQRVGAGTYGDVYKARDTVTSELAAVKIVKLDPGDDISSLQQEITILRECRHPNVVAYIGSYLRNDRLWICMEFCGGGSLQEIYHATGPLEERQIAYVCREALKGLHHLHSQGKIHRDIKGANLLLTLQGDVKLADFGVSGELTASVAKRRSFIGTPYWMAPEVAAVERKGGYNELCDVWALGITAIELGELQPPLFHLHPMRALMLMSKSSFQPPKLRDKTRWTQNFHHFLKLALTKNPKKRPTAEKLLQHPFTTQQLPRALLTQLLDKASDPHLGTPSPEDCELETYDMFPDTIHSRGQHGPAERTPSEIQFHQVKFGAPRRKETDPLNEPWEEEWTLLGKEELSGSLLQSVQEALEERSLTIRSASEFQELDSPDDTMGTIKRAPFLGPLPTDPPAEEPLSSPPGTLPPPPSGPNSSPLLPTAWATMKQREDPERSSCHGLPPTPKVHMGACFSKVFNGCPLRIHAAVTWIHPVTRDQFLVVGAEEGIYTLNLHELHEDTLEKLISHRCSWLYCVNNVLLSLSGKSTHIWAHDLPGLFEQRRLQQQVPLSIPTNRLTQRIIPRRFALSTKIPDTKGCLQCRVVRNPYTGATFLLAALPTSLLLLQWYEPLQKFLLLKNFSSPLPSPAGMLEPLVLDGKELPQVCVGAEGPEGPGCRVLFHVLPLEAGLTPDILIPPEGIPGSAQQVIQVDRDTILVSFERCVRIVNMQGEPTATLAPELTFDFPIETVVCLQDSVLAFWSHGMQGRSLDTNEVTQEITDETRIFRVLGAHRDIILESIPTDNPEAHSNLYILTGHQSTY
Details: capturing and identification of kinases from mixed HeLa placenta lysates; endogenous in cells; host or cells: mixed lysate of HeLa cells and placenta tissue. The method, then:
as §1

The next test has as its target TGFbR1 (Homo sapiens, UniProt P36897). On the set-up: kinases from mixed HeLa placenta lysates; endogenous in cells; host or cells: mixed lysate of HeLa cells and placenta tissue. The method, then: as §1
A further test has as its target Wee1 (Homo sapiens, UniProt P30291). On the set-up: kinases from mixed HeLa placenta lysates; endogenous in cells; host or cells: mixed lysate of HeLa cells and placenta tissue. The method, then: as §1
Another test has as its target T2, ULK3 (Homo sapiens, UniProt Q6PHR2).
T2 sequence (Q6PHR2 1-472): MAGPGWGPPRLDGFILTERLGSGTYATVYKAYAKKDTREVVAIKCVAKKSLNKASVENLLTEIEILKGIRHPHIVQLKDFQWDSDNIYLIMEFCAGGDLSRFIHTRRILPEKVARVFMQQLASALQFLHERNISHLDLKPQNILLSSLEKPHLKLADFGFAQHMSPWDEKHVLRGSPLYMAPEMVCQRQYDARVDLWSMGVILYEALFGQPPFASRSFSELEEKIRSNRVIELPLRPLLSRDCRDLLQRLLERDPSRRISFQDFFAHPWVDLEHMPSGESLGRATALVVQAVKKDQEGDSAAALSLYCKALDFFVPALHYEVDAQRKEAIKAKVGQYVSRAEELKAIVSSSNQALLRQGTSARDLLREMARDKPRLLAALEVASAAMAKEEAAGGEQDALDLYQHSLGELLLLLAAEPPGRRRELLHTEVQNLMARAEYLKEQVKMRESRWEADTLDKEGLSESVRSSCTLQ
Details: kinases from mixed HeLa placenta lysates; endogenous in cells; host or cells: mixed lysate of HeLa cells and placenta tissue. How it is done: as §1

For a further test, the target named is YES (Homo sapiens, UniProt P07947). Details: kinases from mixed HeLa placenta lysates; endogenous in cells; host or cells: mixed lysate of HeLa cells and placenta tissue. The method, then:
as §1

Chain of TGFbR1 (P36897 34-503): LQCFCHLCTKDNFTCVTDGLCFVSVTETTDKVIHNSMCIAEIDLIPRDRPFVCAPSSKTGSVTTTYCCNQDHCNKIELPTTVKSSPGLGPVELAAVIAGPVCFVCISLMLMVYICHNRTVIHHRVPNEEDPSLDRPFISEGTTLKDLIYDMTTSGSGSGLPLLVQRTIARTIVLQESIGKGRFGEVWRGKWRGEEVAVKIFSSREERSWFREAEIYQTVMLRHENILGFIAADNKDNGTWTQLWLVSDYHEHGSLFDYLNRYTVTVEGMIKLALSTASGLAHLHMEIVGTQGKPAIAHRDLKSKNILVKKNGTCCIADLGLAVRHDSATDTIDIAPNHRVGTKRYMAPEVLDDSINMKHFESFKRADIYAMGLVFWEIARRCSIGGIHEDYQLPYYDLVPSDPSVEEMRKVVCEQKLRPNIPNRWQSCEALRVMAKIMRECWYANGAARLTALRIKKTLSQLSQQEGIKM
Chain of Erk2 (P28482 whole entry): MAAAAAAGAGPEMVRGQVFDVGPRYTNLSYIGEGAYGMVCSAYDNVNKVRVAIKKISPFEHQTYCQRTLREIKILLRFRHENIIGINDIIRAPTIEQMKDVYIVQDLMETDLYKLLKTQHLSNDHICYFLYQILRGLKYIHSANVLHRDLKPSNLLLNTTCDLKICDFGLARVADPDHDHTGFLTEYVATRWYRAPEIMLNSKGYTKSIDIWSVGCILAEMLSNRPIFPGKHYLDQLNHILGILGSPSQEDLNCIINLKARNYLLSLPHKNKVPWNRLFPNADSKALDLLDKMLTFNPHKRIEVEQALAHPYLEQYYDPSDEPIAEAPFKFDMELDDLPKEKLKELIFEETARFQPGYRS
Chain of Wee1 (P30291 whole entry): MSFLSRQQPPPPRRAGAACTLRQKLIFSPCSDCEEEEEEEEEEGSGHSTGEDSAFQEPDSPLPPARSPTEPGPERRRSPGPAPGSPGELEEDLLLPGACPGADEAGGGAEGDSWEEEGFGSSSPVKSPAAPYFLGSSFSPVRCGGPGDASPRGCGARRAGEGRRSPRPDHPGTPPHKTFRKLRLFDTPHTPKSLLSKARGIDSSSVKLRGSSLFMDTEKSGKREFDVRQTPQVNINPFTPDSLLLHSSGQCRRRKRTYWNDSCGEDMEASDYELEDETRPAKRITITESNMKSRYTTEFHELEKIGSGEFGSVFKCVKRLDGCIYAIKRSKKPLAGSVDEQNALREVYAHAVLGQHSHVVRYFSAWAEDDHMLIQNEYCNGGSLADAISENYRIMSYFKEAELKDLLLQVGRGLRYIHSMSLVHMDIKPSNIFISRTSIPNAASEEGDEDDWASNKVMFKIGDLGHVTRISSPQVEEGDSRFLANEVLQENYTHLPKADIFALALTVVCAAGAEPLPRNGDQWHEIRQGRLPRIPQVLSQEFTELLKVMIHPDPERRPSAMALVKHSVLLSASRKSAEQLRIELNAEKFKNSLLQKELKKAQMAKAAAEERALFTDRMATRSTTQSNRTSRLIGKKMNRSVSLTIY
Chain of YES (P07947 whole entry): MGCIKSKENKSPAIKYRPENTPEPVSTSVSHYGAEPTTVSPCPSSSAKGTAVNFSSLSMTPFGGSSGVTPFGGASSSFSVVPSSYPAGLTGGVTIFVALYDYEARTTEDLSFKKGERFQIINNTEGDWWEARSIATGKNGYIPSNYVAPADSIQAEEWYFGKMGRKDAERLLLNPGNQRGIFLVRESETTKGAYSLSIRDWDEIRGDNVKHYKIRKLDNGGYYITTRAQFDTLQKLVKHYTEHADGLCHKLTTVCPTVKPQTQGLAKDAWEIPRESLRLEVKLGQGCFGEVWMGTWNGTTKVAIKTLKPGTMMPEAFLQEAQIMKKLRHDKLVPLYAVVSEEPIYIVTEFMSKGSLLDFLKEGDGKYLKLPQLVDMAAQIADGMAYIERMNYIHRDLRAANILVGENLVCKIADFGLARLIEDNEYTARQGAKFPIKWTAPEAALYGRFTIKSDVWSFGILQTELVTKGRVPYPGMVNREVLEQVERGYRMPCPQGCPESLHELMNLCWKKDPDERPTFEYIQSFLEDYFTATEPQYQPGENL

Regarding `CS(=O)(=O)Nc1ccccc1Nc1nc(Nc2cccc(OCCN)c2)ncc1Cl` [CZC31326, N-(2-(2-(3-(2-aminoethoxy)phenylamino)-5-chloropyrimidin-4-ylamino)phenyl)methanesulfonamide], the inhibition (in general, the change of the read-out against control, counted positive when it falls) at 10 µM on Erk2 was determined as 68.5%; at GCK it was 93.8%; on TGFbR1, 90.8%; at Wee1 it was 95.2%; on YES it was 90.3%. Also, the Competition % on ULK3 was found to be 94.6%.
